This is an account of results in patent US20230053342A1, “IMIDAZOLIDINONE COMPOUND, PREPARATION METHOD THEREFOR AND USE THEREOF” (BETTA PHARMACEUTICALS CO., LTD, priority 2019, published 2023).

For orientation: clearance means a measure of how efficiently the substance is removed, as volume per time. The low end stands for inefficient removal, the high end for efficient removal. A word on the AUC: it is the area under the concentration-time curve, a measure of exposure. A lower AUC goes with low exposure. For orientation: Cmax means the peak of the concentration-time curve. What is called IC50 is the concentration that gives 50% inhibition.

The nature of series [1]: Pharmacokinetic test in male SD rats. In kind it is in vivo. The conditions noted are these: rat, plasma; for clearance: intravenous injection, 2 mg/kg; for AUC / Cmax: po, gavage, 10 mg/kg. Here is the method:
Method: 42 male SD rats, weight: 150-300 g. Divided into 7 groups randomly, with 6 rats in each group. Among the 6 rats in each group, three of them were administrated a single intravenous injection of […] of the example compound, the other three were given intragastric administration of […] of the example compound, blood was collected from the orbital venous plexus at designated time points, plasma was separated, and stored in a −80° C. refrigerator for later use.
The protein of the resultant plasma was precipitated by acetonitrile, the supernatant was extracted, and mixed with water at the ratio of 1:1, took 10 μL of which for LC-MS/MS detection, and calculated the average was calculated.

A further series has as its system human tumor cells HGC27. As to the kind of experiment: Cell proliferation assay (CellTiter Glo), HGC27. The format is cell-based. The conditions noted are these: HGC-27, HGC27 cells incubated for 96 h, read-out: IC50(μM) of ompound on HGC-27cell. Here is the method:
(§1) Method: The anti-proliferative effects on human tumor cells MCF-7 and HGC27 of certain compounds of the present invention were evaluated by CellTiter Glo assay.
(§2) Detection method: MCF-7 cells were suspended in DMEM culture medium, the cell concentration of which was adjusted to 25000 cells/mL; HGC27 cells were suspended in RPMI-1640 culture medium, the cell concentration of which was adjusted to 5000 cells/mL. 100 μL of cell suspension was dispensed to a 96-well assay plate and placed in a CO2 incubator overnight. The tested compounds were dissolved in DMSO, and 3-fold derail dilution was performed to obtain 10-point concentrations. the 10-point concentrations of the tested compounds or or negative control was transferred to the well containing 100 μL of culture medium respectively, incubated at 37° C., 5% CO2, the HGC27 cells were incubated for 96 h, MCF-7 cells were incubated for 120 h. Then 100 μL of CellTiter-Glo agent was added to the above-mentioned 96-well assay plate, incubated at room temperature for 10 minutes to allow stable luminescence signal. VICTOR™ X5 instrument was used to record RLU (relative luminescence unit), and then calculate the IC50 values were calculated.
(§3) Compound inhibition rate(% inh)=100% −(tested compound RLU-blank control RLU)/(negative control RLU-blank control RLU)*100%
(§4) Blank control: blank culture medium, with no compound or cell;
(§5) The IC50 (half inhibitory concentration) of the compound was obtained using the following nonlinear fitting formula:
(§6) Y=minimum inhibition rate+(max inhibition rate-minimum inhibition rate)/(1+10^((Log IC50−X)*slope)); wherein, X: the log value of the concentration of the tested compound; Y: the inhibition rate of the tested compound(% inh).
In general terms: In ATP-based viability assays light output follows the ATP content of the culture.

In a further series the test system is human tumor cells MCF-7. Description: Cell proliferation assay (CellTiter Glo), MCF-7. In kind it is cell-based. The conditions noted are these: MCF7, MCF-7 cells incubated for 120 h, read-out: IC50(μM) of compound on MCF cell. Here is the method: as §1, §2, §3, §4, §5, §6
The target of a further series is PI3Kβ (Homo sapiens, UniProt P42338). As to the kind of experiment: Kinase experiment (ADP-Glo, luminescence), PI3Kβ. In kind it is biochemical. The conditions noted are these: final concentration of ATP 10 μM; read-out: IC50 of compound to PI3K (nM) β. Here is the method:
(§7) PI3Kα, PI3Kβ, PI3Kγ kinases undergo enzymatic reactions with their substrates ATP and PIP2:3PS, the amount of the product detected by ADP-Glo agent and luminescence method were used to reflect the enzymatic activities of PI3Kα, PI3Kβ, PI3Kγ (the final concentration of ATP is 10 μM). The above methods were used to test the inhibitory activity of certain compound of the present invention on PI3Kα, PI3Kβ and PI3Kγ kinase.
(§8) Agent: Basic kinase buffer (pH 7.5); PI3Kα, PI3Kβ, PI3Kγ kinase solutions; PIP2:3PS and ATP solutions; ADP-Glo kit (containing 10 mM MgCl2).
(§9) Wherein, the buffer composition: 50 mM Hepes (pH 7.2-7.5), 3 mM MgCl2, 1 mM EGTA, 0.03% CHAPS, 100 mM NaCl, 2 mM DTT; • Compound preparation: The tested compound was diluted to a specific concentration with 100% DMSO. • Process: 1) PI3Kα, PI3Kβ, or PI3Kγ protein solution were dispensed to a 384-well assay plate (6008280, PerkinElmer), and centrifuged at 1000 rpm for 1 minute. • 2) Tested compound, negative control DMSO or positive control BYL719 was dispensed to the above-mentioned 384-well assay plate with the kinase, centrifuged at 1000 rpm for 1 min, and incubated at 25° C. for 15 mins. • 3) PIP2:3PS&ATP solution was added to the above-mentioned 384-well assay plate, centrifuged at 1000 rpm for 1 min, incubated at 25° C. for 60 mins. • 4) 5 μL of ADP-Glo agent (10 mM MgCl2 contained) was transferred to the 384-well assay plate, centrifuged at 1000 rpm for 1 min, incubated at 25° C. for 40 mins. • 5) 10 μL of Detection agent was transferred to the 384-well assay plate, centrifuged at 1000 rpm for 1 min, incubated at 25° C. for 40 mins. • 6) RLU (Relative luminescence unit) value was measured by Envision multifunctional plate reader. The RLU value was used to characterize the degree of reaction between the enzyme and the substrate, and calculate the IC50 value. • 7) Data analysis:
(§10) Compound inhibition rate(% inh)=(negative control RLU-tested compound RLU)/(negative control RLU-positive control RLU)*100%
as §5
(§11) Y=minimum inhibition rate+(max inhibition rate-minimum inhibition rate)/(1+10^((Log IC50−X)*slope)); wherein, X is the log value of the concentration of the tested compound, Y is the inhibition rate of tested compound(% inh).

The target of another series is PI3Kγ (Homo sapiens, UniProt P48736). Description: Kinase experiment (ADP-Glo, luminescence), PI3Kγ. In kind it is biochemical. The conditions noted are these: final concentration of ATP 10 μM; read-out: IC50 of compound to PI3K (nM) γ. The protocol: as §7, §8, §9, §10, §5, §11
(In general: In ADP-Glo the light output rises with the ADP produced.)

The target of the next series is PI3Kα (Homo sapiens, UniProt P42336). As to the kind of experiment: Kinase experiment (ADP-Glo, luminescence), PI3Kα. In kind it is biochemical. The conditions noted are these: final concentration of ATP 10 μM; read-out: IC50 of compound to PI3K (nM) α. The protocol: as §7, §8, §9, §10, §5, §11

Where only a bound is given, the exact number is not on record here.

Chain of PI3Kα (P42336 whole entry): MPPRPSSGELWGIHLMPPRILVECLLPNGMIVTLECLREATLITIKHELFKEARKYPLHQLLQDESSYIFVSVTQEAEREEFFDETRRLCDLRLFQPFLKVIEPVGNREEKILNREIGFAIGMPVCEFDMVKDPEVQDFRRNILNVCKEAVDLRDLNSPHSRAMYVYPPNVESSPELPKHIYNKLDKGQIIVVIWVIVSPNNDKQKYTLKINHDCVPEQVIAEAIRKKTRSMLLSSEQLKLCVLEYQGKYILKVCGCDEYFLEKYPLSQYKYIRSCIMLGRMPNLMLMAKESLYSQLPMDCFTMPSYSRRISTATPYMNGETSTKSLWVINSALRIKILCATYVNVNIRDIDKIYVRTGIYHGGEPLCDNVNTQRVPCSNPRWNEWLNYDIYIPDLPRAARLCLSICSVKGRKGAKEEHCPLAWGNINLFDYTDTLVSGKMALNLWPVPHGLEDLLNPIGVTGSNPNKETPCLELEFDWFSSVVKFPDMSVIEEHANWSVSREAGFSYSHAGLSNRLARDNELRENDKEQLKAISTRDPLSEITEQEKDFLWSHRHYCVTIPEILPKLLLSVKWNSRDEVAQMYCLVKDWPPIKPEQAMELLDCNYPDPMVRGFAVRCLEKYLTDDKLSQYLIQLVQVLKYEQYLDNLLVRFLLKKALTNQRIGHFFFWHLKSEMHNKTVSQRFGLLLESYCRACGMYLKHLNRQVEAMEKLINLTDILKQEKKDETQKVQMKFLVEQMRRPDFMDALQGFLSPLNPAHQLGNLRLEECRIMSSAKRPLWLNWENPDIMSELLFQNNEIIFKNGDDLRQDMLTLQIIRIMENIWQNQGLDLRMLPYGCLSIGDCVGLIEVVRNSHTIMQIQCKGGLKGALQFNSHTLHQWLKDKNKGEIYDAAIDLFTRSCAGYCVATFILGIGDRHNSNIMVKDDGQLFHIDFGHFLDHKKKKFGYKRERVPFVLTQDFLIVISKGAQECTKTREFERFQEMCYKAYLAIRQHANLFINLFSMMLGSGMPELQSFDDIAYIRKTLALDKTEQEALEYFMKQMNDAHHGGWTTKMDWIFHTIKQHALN
Chain of PI3Kα (P27986 whole entry partner): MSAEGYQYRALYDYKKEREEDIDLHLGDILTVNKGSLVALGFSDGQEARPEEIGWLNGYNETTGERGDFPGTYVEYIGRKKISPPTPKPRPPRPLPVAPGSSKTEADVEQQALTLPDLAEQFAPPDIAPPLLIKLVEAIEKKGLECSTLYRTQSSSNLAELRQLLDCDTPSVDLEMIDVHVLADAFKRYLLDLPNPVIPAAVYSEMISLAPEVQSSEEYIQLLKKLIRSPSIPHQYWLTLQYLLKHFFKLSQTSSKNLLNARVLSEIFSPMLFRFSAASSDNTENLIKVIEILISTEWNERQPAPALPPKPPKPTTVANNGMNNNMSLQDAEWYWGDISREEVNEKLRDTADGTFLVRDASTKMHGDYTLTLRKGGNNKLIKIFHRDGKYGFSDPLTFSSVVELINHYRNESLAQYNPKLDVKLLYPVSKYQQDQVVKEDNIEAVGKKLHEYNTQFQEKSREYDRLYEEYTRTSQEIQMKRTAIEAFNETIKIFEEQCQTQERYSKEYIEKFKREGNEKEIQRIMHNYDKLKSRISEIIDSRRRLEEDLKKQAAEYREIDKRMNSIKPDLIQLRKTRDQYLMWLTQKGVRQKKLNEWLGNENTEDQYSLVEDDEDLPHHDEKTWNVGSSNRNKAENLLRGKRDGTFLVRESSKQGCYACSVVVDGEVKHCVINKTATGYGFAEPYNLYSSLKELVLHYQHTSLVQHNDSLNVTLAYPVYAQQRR
Chain of PI3Kγ (P48736 whole entry): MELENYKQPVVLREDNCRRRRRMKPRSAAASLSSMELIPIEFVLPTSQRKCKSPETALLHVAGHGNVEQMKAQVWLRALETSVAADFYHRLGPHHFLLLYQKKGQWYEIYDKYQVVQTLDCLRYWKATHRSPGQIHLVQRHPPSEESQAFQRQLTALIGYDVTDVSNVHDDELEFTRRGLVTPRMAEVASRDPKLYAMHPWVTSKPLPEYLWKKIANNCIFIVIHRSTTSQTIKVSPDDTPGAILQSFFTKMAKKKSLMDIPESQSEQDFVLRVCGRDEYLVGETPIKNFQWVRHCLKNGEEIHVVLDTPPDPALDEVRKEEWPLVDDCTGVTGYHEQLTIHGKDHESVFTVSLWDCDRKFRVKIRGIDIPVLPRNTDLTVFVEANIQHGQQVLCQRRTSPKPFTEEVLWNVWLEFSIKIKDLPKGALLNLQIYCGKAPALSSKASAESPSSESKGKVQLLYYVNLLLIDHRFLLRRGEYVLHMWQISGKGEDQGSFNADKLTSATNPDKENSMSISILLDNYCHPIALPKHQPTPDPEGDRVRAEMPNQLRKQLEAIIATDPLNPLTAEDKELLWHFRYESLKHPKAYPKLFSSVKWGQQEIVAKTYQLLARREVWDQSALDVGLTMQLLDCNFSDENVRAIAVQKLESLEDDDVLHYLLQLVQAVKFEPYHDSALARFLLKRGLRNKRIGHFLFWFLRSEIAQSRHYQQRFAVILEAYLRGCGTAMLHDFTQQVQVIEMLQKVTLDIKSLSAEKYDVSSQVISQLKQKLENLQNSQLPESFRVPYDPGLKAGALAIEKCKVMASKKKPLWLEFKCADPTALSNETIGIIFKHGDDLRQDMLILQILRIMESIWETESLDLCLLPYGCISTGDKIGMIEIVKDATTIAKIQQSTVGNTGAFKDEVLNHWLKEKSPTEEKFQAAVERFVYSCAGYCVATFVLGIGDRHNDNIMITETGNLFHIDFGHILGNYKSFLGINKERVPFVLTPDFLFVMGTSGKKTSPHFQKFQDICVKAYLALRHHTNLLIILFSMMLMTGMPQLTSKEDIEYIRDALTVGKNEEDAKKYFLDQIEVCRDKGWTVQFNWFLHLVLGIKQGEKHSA
Chain of PI3Kβ (P42338 whole entry): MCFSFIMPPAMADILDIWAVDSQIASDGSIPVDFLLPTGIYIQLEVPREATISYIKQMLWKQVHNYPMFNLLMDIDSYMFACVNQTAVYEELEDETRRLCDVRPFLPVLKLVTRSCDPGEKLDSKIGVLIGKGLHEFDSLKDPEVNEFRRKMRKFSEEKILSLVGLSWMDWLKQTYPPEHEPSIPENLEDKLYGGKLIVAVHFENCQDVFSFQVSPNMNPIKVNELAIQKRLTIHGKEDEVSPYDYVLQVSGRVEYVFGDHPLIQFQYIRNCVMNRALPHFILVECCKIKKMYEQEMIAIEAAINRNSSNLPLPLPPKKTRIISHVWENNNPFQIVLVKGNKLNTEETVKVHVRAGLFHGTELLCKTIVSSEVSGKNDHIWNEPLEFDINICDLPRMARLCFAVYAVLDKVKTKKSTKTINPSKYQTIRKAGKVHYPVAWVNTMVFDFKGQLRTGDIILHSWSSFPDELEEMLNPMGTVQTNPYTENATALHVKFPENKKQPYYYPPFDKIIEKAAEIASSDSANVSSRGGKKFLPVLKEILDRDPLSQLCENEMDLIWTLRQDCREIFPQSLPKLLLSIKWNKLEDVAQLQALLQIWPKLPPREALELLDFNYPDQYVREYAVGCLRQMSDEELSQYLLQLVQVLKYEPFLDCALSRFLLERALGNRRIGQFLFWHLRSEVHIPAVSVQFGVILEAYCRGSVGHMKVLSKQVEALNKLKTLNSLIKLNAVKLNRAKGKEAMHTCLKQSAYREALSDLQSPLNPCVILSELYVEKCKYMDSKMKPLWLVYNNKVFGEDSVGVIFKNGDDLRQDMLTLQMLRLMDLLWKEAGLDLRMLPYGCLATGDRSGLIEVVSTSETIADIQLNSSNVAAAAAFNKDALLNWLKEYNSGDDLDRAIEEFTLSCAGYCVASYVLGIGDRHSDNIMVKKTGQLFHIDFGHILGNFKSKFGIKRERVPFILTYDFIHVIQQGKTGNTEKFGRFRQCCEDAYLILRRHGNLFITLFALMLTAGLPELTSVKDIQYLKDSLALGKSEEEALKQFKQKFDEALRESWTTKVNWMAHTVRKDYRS
Chain of PI3Kβ (P27986 whole entry partner): as the sequence (P27986 whole entry partner) above

On to `C[C@@H]1COC(=O)N1c1cn2c(n1)-c1ccc(N3CCC[C@H]3C(N)=O)cc1OCC2` [Control compound 1, (2S)-1-(2-((4R)-4-methyl-2-oxooxazolidin-3-yl)-5,6-dihydrobenzo[f]imidazo[1,2-d] [1,4]oxazepin-9-yl)pyrrolidine-2-carboxamide, reference compound], for which, in series [1], the clearance was 16.6 mL/min/kg, the exposure (AUC) amounted to 7880 ng·h/mL and the concentration peaked (Cmax) at 1960 ng/mL. Also, the IC50 with human tumor cells HGC27 turned out to be 1.58 µM. The IC50 in the series on human tumor cells MCF-7 turned out to be 0.444 µM.
Turning to `NC(=O)[C@@H]1CCCN1c1ccc2c(c1)OCCn1cc(N3C(=O)CC[C@@H]3CO)nc1-2` [Control compound 2, (2S)-1-(2-((2R)-2-(hydroxymethyl)-5-oxopyrrolidine-1-yl)-5,6-dihydrobenzo[f]imidazo[1,2-d][1,4]oxazepin-9-yl)pyrrolidine-2-carboxamide, reference compound], the concentration for half-maximal inhibition (IC50) in the series on human tumor cells MCF-7 was determined as 0.549 µM.
On to `CC(C)(c1cc(-c2cn3c(n2)-c2ccc(N4CCC[C@H]4C(N)=O)cc2OCC3)ccn1)C(F)(F)F` [Control compound 3, (2S)-1-(2-(2-(1,1,1-trifluoro-2-methylpropan-2-yl)pyridn-4-yl)-5,6-dihydrobenzo[f]imidazo[1,2-d][1,4]oxazepin-9-yl)pyrrolidine-2-carboxamide, reference compound], for which the IC50 worked out at 2.07 µM in the series on human tumor cells HGC27 and 0.519 µM with human tumor cells MCF-7.
Take `CC(C)C1C(=O)N(C)C(=O)N1c1cn2c(n1)-c1ccc(N3CCC[C@H]3C(N)=O)cc1OCC2` (stereo partly drawn) [Example 1, (2S)-1-(2-(5-isopropyl-3-methyl-2,4-dioxoimidazolidin-1-yl)-5,6-dihydrobenzo[f]imidazo [1,2-d][1,4]oxazepin-9-yl)pyrrolidine-2-carboxamide]: the concentration for half-maximal inhibition (IC50) is over 600 nM on PI3Kβ, over 600 nM on PI3Kγ, 0.176 µM with human tumor cells MCF-7 and under 5 nM on PI3Kα.
`CC(C)C1C(=O)N(C2CC2)C(=O)N1c1cn2c(n1)-c1ccc(N3CCC[C@H]3C(N)=O)cc1OCC2` (stereo partly drawn) [Example 2, (2S)-1-(2-(3-cyclopropyl-5-isopropyl-2,4-dioxoimidazolidin-1-yl)-5,6-dihydrobenzo[f]imidazo[1,2-d][1,4]oxazepin-9-yl)pyrrolidine-2-carboxamide] returned a clearance in series [1] of 1.98 mL/min/kg. Besides, the AUC in series [1] was 53000 ng·h/mL. In addition, the peak level in series [1] (Cmax) was 4340 ng/mL. Besides, the IC50 on PI3Kβ was over 600 nM; with human tumor cells HGC27 it was 0.361 µM; on PI3Kγ, 300 to 600 nM; in the series with human tumor cells MCF-7, 0.07 µM; on PI3Kα, under 5 nM.
For the compound `CC(C)C1C(=O)N(CC(F)(F)F)C(=O)N1c1cn2c(n1)-c1ccc(N3CCC[C@H]3C(N)=O)cc1OCC2` (stereo partly drawn) [Example 3, (2S)-1-(2-(5-isopropyl-2,4-dioxo-3-(2,2,2-trifluoroethyl)imidazolidine-1-yl)-5,6-dihydrobenzo[f]imdazo[1,2-d] [1,4]oxazepin-9-yl)pyrrolidine-2-carboxamide], at PI3Kα, the IC50 is under 5 nM.
For the compound `CC(C)C1C(=O)N(c2ccc(F)cc2)C(=O)N1c1cn2c(n1)-c1ccc(N3CCC[C@H]3C(N)=O)cc1OCC2` (stereo partly drawn) [Example 4, (2S)-1-(2-(3-(4-fluorophenyl)-5-isopropyl-2,4-dioxoimidazolidin-1-yl)-5,6-dihydrobenzo[f]imidazo [1,2-d][1,4]oxazepin-9-yl)pyrrolidine-2-carboxamide], in series [1], the clearance amounted to 4.75 mL/min/kg, the exposure (AUC) is 29100 ng·h/mL and the concentration peaked (Cmax) at 2690 ng/mL. Moreover, at PI3Kβ, the half-inhibitory concentration (IC50) is over 600 nM. At PI3Kγ, the 50% inhibitory concentration (IC50) was over 600 nM. The half-inhibitory concentration (IC50) on PI3Kα is 5 to 20 nM.
Turning to `CN1C(=O)C(C2CC2)N(c2cn3c(n2)-c2ccc(N4CCC[C@H]4C(N)=O)cc2OCC3)C1=O` (stereo partly drawn) [Example 5, (2S)-1-(2-(5-cyclopropyl-3-methyl-2,4-dioxoimidazolidin-1-yl)-5,6-dihydrobenzo[f]imidazo [1,2-d] [1,4]oxazepin-9-yl) pyrrolidine-2-carboxamide], the IC50 is 4.07 µM with human tumor cells HGC27, 0.373 µM with human tumor cells MCF-7 and 5 to 20 nM on PI3Kα.
Turning to `CC(C)C1C(=O)N(C2CCC2)C(=O)N1c1cn2c(n1)-c1ccc(N3CCC[C@H]3C(N)=O)cc1OCC2` (stereo partly drawn) [Example 6, (2S)-1-(2-(3-cyclobutyl-5-isopropyl-2,4-dioxoimidazolidin-1-yl)-5,6-dihydrobenzo[f]imidazo [1,2-d] [1,4]oxazepin-9-yl)pyrrolidine-2-carboxamide], the half-inhibitory concentration (IC50) on PI3Kα lay in the range of 5 to 20 nM.
Same read-out and setting: next, `CCN1C(=O)C(C(C)C)N(c2cn3c(n2)-c2ccc(N4CCC[C@H]4C(N)=O)cc2OCC3)C1=O` (stereo partly drawn) [Example 7, (2S)-1-(2-(3-ethyl-5-isopropyl-2,4-dioxoimidazolidin-1-yl)-5,6-dihydrobenzo[f]imidazo [1,2-d] [1,4]oxazepin-9-yl) pyrrolidine-2-carboxamide]: 5 to 20 nM.
With `CC(C)C1C(=O)N(c2ccccc2)C(=O)N1c1cn2c(n1)-c1ccc(N3CCC[C@H]3C(N)=O)cc1OCC2` (stereo partly drawn) [Example 9, (2S)-1-(2-(5-isopropyl-2,4-dioxo-3-phenylimidazolidine-1-yl)-5,6-dihydrobenzo[f]imidazo[1,2-d] [1,4]oxazepin-9-yl)pyrrolidine-2-carboxamide], the concentration for half-maximal inhibition (IC50) was 0.142 µM in the series on human tumor cells MCF-7 and 5 to 20 nM on PI3Kα.
Take `CC(C)C1C(=O)N(C(C)C)C(=O)N1c1cn2c(n1)-c1ccc(N3CCC[C@H]3C(N)=O)cc1OCC2` (stereo partly drawn) [Example 23, (2S)-1-(2-(3,5-diisopropyl-2,4-dioxoimidazolidin-1-yl)-5,6-dihydrobenzo[f]imidazo[1,2-d] [1,4]oxazepin-9-yl)pyrrolidine-2-carboxamide]: in series [1], the clearance was found to be 8.76 mL/min/kg, the exposure (AUC) was 18600 ng·h/mL and the highest level (Cmax) was 1830 ng/mL. For the same compound, the half-maximal inhibitory concentration (IC50) in the series on human tumor cells MCF-7 came out at 0.074 µM. Moreover, at PI3Kα, the IC50 was under 5 nM.
In the case of `CN1C(=O)CN(c2cn3c(n2)-c2ccc(N4CCC[C@H]4C(N)=O)cc2OCC3)C1=O` [Example 28, (2S)-1-(2-(3-methyl-2,4-dioxoimidazolidin-1-yl)-5,6-dihydrobenzo[f]imidazo[1,2-d] [1,4]oxazepin-9-yl)pyrrolidine-2-carboxamide], the IC50 in the series with human tumor cells HGC27 was 3.92 µM; in the series with human tumor cells MCF-7 it was 0.468 µM.
